The conditions of data set [1]: rcm bond, 14-membered ring, DCE.
The target in data set [2] is T1, HCV NS3-NS4A protease (Hepatitis C virus genotype 1b, UniProt P26663).
T1 construct: made in house
As to the kind of experiment: HCV Protease Assay (SensoLyte 620 HCV Protease Assay kit). The class given is biochemical. Particulars: 1.2 nM HCV NS3-NS4A protease, 60 min at room temperature, 5% DMSO. In short, it runs like this:
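Protease at 1.2 nM, run with the SensoLyte 620 fluorogenic kit under supplier conditions, with compounds at several concentrations in buffer with 5% final DMSO. Reactions ran 60 min at room temperature before fluorescence reading; IC50 from four-parameter sigmoidal fit of percent inhibition.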

Data set [3] deals with Huh-7 cells containing HCV Con1 subgenomic replicon (GS4.1 cells). As to the kind of experiment: HCV Replicon Assay (NS4A ELISA). The class given is cell-based. The conditions noted are these: NS4A protein by ELISA. The procedure, abridged:
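GS4.1 cells (Huh-7 with HCV Con1 subgenomic replicon) given ten 2-fold compound dilutions (top 75 μM) or a single 15 μM dose in 0.5% DMSO for 72 h at 37 °C. NS4A measured by cell ELISA (A492); EC50 from four-parameter sigmoidal fit, single-dose results as % inhibition at 15 μM.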
On the technique in general: A replicon is a self-replicating genome or part of one, used to study replication in cells.

Data set [4] is described as follows: Cytotoxicity evaluation (Cell Titer 96 AQueous One Solution Cell Proliferation Assay). The format is cell-based. The conditions noted are these: human; GS4.1 cells, cellular viability. As to the method:
(§1) For cytotoxicity evaluation, GS4.1 cells were treated with compounds as described above and cellular viability was monitored using the Cell Titer 96 AQueous One Solution Cell Proliferation Assay (Promega). CC50 values were determined from the % cytotoxicity versus concentration data with Tecan Magellan software as described above.

Data set [5] deals with genotype 1b replicon. As to the kind of experiment: Antiviral activity in a genotype 1b replicon assay. The class given is cell-based, HCV. The conditions noted are these: Hepatitis C virus; genotype 1b replicon assay as described in Example 32; read-out: EC50. As for the experimental part: General procedure: Huh-7 cells containing HCV Con1 subgenomic replicon (GS4.1 cells) were grown in Dulbecco's Modified Eagle Medium (DMEM) supplemented with 10% fetal bovine serum (FBS), 2 mM L-glutamine, 110 mg/L sodium pyruvate, 1× non-essential amino acids, 100 U/mL penicillin-streptomycin, and 0.5 mg/mL G418 (Invitrogen). For dose-response testing, the cells were seeded in 96-well plates at 7.5×10^3 cells/well in a volume of 50 μL, and incubated at 37° C./5% CO2. Three hours after plating, 50 μL of ten 2-fold serial dilutions of compounds (highest concentration, 75 μM) were added, and cell cultures were incubated at 37° C./5% CO2 in the presence of 0.5% DMSO. Alternatively, compounds were tested at a single concentration of 15 μM. In all cases, Huh-7 cells lacking the HCV replicon served as negative control. The cells were incubated in the presence of compounds for 72 hr after which they were monitored for expression of the NS4A protein by enzyme-linked immunosorbent assay (ELISA). For this, the plates were then fixed for 1 min with acetone/methanol (1:1, v/v), washed twice with phosphate-buffered saline (PBS), 0.1% Tween 20, blocked for 1 hr at room temperature with TNE buffer containing 10% FBS and then incubated for 2 hr at 37° C. with the anti-NS4A mouse monoclonal antibody A-236 (ViroGen) diluted in the same buffer. After washing three times with PBS, 0.1% Tween 20, the cells were incubated 1 hr at 37° C. with anti-mouse immunoglobulin G-peroxidase conjugate in TNE, 10% FBS. After washing as described above, the reaction was developed with O-phenylenediamine (Zymed). The reaction was stopped after 30 min with 2 NH2SO4, and absorbance was read at 492 nm using Sunrise Tecan spectrophotometer. EC50 values were determined from the % inhibition versus concentration data using a sigmoidal non-linear regression analysis based on four parameters with Tecan Magellan software. When screening at a single concentration, the results were expressed as % inhibition at 15 μM.
(§2) Compounds were tested in a genotype 1b replicon assay as described in Example 32 and the results are summarized in Table 6, wherein A represents a value smaller than 1 μM, and B represents a value between 1 μM to 10 μM, C represents a value between 10 μM to 75 μM and D represents a value greater than 75 μM.

Data set [6] is described as follows: Cytotoxicity (CC50) in the genotype 1b replicon assay. Particulars: human, GS4.1 cells; genotype 1b replicon assay as described in Example 32. The format is cell-based. As for the experimental part: as §1, §2
Data set [7] concerns HCV genotype 2a infectious virus. As to the kind of experiment: HCV genotype 2a infectious virus assay. The class given is cell-based, HCV (strain JFH-1; genotype 2a). Particulars: Hepatitis C virus. As to the method:
Compounds were tested in a HCV genotype 2a infectious virus assay and the results are summarized in Table 7, wherein A represents a value smaller than 1 μM, and B represents a value between 1 μM to 10 μM, C represents a value between 10 μM to 75 μM and D represents a value greater than 75 μM.
The HCV in vitro infection core ELISA assay measures the ability of a test compound to inhibit replication of an infectious HCV (strain JFH-1; genotype 2a) in cell culture. […] We have developed this model for determining the efficacy of antiviral compounds against an infectious virus in vitro using HCV producing cells (HPC), a proprietary Huh-7-derived cell sublineage capable of propagating the JFH-1 HCV virus. The readout of the assay is quantification of HCV core protein by ELISA 5 days post infection with JFH-1 virus and treatment with a test compound.
Ninety-six-well Corning Costar plates were seeded with HPC cells at a density of 3.0×10^3 cells per well in 50 μL of Huh-7 media. Compound stock solutions were made up freshly in Huh-7 media (DMEM (containing glucose, L-glutamine and sodium pyruvate), 10% FBS, 100 IU/mL penicillin, 100 μg/mL streptomycin, 2 mM GlutaMAX, 1% MEM non-essential amino acids) as 2× stock. Seven additional 3-fold drug dilutions were prepared from the 2× stocks in Huh-7 media. At least 4 hours after HPC cells were seeded, the media in the 96-well culture plates was aspirated and 50 μL of each drug dilution and 50 μL of JFH-1 HCV was added to each well.
At 16 hrs post treatment and infection, the virus inoculum was removed by aspiration. The cultures were treated at the same final concentrations of drug diluted to 1× in Huh-7 media to a final volume of 200 μL. Cells were incubated in the presence of drug for 4 additional days at 37° C./5% CO2.
Media was removed from the plates by aspiration. Cells were fixed with 250 μL 1:1 acetone:methanol for 90 seconds, washed once in PBS and then three times with 1×KPL wash solution. The assay plates were then blocked with 150 μL/well 10% FBS-TNE (50 mM Tris-HCl (pH 7.5; Sigma), 100 mM NaCl, 1 mM EDTA with 10% FBS) for 1 hr at room temperature. Cells were washed three times with 1×KPL wash solution and incubated with 100 μL/well anti-hepatitis C core mAb (1 mg/mL stock diluted 1:500 in 10% FBS-TNE) for 2 hours at 37° C. Cells were washed three times with 1×KPL wash solution and incubated with 100 μL/well HRP-goat anti-mouse antibody (diluted 1:2,500 in 10% FBS-TNE) for 1 hr at 37° C.
OPD solution was prepared using 1 OPD tablet+12 mL citrate/phosphate buffer (16 mM citric acid, 27 mM Na2HPO4) plus 5 μL 30% H2O2 per plate. Cells were washed three times with 1×KPL wash solution and developed with 100 μL/well OPD solution for 30 minutes in the dark at room temperature. The reaction was stopped with 100 μL/well of 2NH2SO4, and absorbance measured at A490 nm in a Victor^3 V 1420 multilabel counter (Perkin Elmer). The EC50 values for each compound were calculated from dose response curves from the resulting best-fit equations determined by Microsoft Excel and XLfit 4.1 software. The negative control for inhibition of virus replication was untreated HPC cells infected with the JFH-1 HCV virus strain. The negative ELISA control was untreated, uninfected HPC cells. The positive ELISA control was untreated HPC cells infected the JFH-1 HCV virus strain.

Data set [8] deals with GS4.1 cells. The data set is described as follows: Cytotoxicity evaluation (Cell Titer 96 AQueous One Solution Cell Proliferation Assay). The format is cell-based. The conditions noted are these: cellular viability. As to the method: as §1
[9] abbreviates: Hepatitis C virus, Huh-7, 72 hr.

The values below come from US8003659B2, “Macrocyclic serine protease inhibitors” (Indenix Pharmaceuticals, Inc., priority 2008, dated 2011).

pEC50, pIC50: −log10 of the molar value. Read-outs that look alike come from different tables or passages of the source. Some results are limits rather than exact numbers.

T1 sequence (P26663 1027-1208): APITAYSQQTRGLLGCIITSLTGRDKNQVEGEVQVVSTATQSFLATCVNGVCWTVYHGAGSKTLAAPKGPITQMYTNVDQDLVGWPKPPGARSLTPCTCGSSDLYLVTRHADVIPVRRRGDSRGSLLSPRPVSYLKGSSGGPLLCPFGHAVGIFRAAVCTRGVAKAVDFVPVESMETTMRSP

In data set [1] (from C=CCCCCN(C)C(=O)[C@@H]1C[C@@H](O[Si](C)(C)C(C)(C)C)CN1C(=O)N[C@]1(C(=O)OCC)C[C@@H]1C=C, Hoveyda-Grubbs II (6%), 1.9 mM, 3.0 h), `CCOC(=O)[C@@]12C[C@@H]1C=CCCCCN(C)C(=O)[C@@H]1C[C@@H](O[Si](C)(C)C(C)(C)C)CN1C(=O)N2` yielded a ring closure, isolated yield of 51%.

Regarding `COc1ccc2c(O[C@H]3C[C@H]4C(=O)N(C)CCCCC=C[C@@H]5C[C@@]5(C(=O)NS(=O)(=O)C5CC5)NC(=O)N4C3)cc(-n3ccc(C(F)(F)F)n3)nc2c1Cl`, in data set [1] (from C=CCCCCN(C)C(=O)[C@@H]1C[C@H](Oc2cc(-n3ccc(C(F)(F)F)n3)nc3c(Cl)c(OC)ccc23)CN1C(=O)N[C@]1(C(=O)NS(=O)(=O)C2CC2)C[C@H]1C=C, Zhan 1B, 1.0 mM, 60.0 °C, 18.0 h), the ring closure, isolated yield is 40%.

The pIC50 is the IC50 on a negative log10 scale, so that one unit is a factor of ten. A low value points to a large IC50. A word on the pEC50: it is the EC50 on a negative log10 scale, so that one unit is a factor of ten. Broadly, the CC50 is the concentration at which the toxic effect on the cells reaches its halfway point. Read a low CC50 as greater toxicity to the cells. In the case of `COc1ccc2c(O[C@H]3C[C@H]4C(=O)N(C)CCCC/C=C\[C@@H]5C[C@@]5(C(=O)NS(=O)(=O)C5(C)CC5)NC(=O)N4C3)cc(-c3nc(C(F)(F)F)cs3)nc2c1C` [Compound 68b, (Z)-(4R,6S,15S,17S)-[17-[7-methoxy-8-methyl-2-(4-trifluoromethythiazol-2-yl)quinolin-4-yloxy]-13-N-methyl-2,14-dioxo-1,3,13-triazatricyclo[13.3.0.0]octadec-7-en-4-yl]carbonyl(1-methylcyclopropyl)sulfonamide], in data set [1] (from C=CCCCCN(C)C(=O)[C@@H]1C[C@H](Oc2cc(-c3nc(C(F)(F)F)cs3)nc3c(C)c(OC)ccc23)CN1C(=O)N[C@]1(C(=O)NS(=O)(=O)C2(C)CC2)C[C@H]1C=C, Zhan 1B (8%), 4.9 mM, 75.0 °C, 4.33 h), the ring closure, isolated yield stood at 30%. The pIC50 in data set [2] is > 6.00. In addition, the pEC50 in data set [3] (setting [9]), in data set [5] and in data set [7] was > 6.00 throughout. Also, the values for the CC50 in data set [4] and in data set [6] were > 75 µM and 10 to 75 µM, respectively.

Take `COc1ccc2c(O[C@H]3C[C@H]4C(=O)N(C)CCCC/C=C\[C@@H]5C[C@@]5(C(=O)NS(=O)(=O)C5CC5)NC(=O)N4C3)cc(-c3nc(C(F)(F)F)cs3)nc2c1C` [Compound 69b, (Z)-(4R,6S,15S,17S)-[17-[7-methoxy-8-methyl-2-(4-trifluoromethythiazol-2-yl)quinolin-4-yloxy]-13-N-methyl-2,14-dioxo-1,3,13-triazatricyclo[13.3.0.0]octadec-7-en-4-yl]carbonyl(cyclopropyl)sulfonamide]: the negative logarithm of the IC50 (pIC50) in data set [2] was > 6.00. Besides, the pEC50 in data set [3] (setting [9]), in data set [5] and in data set [7] was > 6.00 in each case. Further, the half-maximal cytotoxic concentration (CC50) in data set [4] and in data set [6] was > 75 µM in each case.

The molecule `COc1ccc2c(O[C@@H]3C[C@H]4C(=O)N(C)CCCCC/C=C\[C@@H]5C[C@@]5(C(=O)NS(=O)(=O)C5(C)CC5)NC(=O)N4C3)cc(-c3nc(C(C)C)cs3)nc2c1C` [Compound 76a, (Z)-(4R,6S,16S,18R)-[2,15-dioxo-18-[7-methoxy-8-methyl-2-(4-isopropylthiazol-2-yl)quinolin-4-yloxy]-14-N-methyl-1,3,14-triazatricyclo[14.3.0.0]nonadec-7-en-4-yl]carbonyl(1-methyl-cyclopropyl)sulfonamide] had a pIC50 in data set [2] of 5.00 to 6.00. Moreover, the pEC50 in data set [3] (72 hr) was 5.00 to 6.00. For the same molecule, the CC50 in data set [8] is > 75 µM.

Take `COc1ccc2c(O[C@@H]3C[C@H]4C(=O)N(C)CCCCCC/C=C\[C@@H]5C[C@@]5(C(=O)NS(=O)(=O)C5(C)CC5)NC(=O)N4C3)cc(-c3nc(C(C)C)cs3)nc2c1C` [Compound 76b]: the pIC50 in data set [2] was > 6.00. Moreover, in data set [3] (72 hr), the pEC50 is 5.00 to 6.00. In addition, the CC50 in data set [8] is > 75 µM.

For the molecule `COc1ccc2c(O[C@H]3C[C@H]4C(=O)N(C)CCCC/C=C\[C@@H]5C[C@@]5(C(=O)NS(=O)(=O)C5CC5)NC(=O)N4C3)cc(-c3csc(C#N)n3)nc2c1Cl` [Compound T1, (Z)-(4R,6S,15S,17S)-[17-[8-chloro-7-methoxy-2-(2-cyanothiazol-4-yl)quinolin-4-yloxy]-13-N-methyl-2,14-dioxo-1,3,13-triazatricyclo-[13.3.0.0]octadec-7-en-4-yl]carbonyl-(cyclopropyl)sulfonamide], the pIC50 in data set [2] is > 6.00. Moreover, the pEC50 in data set [3] (72 hr) is > 6.00. This molecule showed a CC50 in data set [8] of 10 to 75 µM.

With `COc1ccc2c(O[C@H]3C[C@H]4C(=O)N(C)CCCC/C=C\[C@@H]5C[C@@]5(C(=O)NS(=O)(=O)C5(C)CC5)NC(=O)N4C3)cc(-c3csc(C#N)n3)nc2c1Cl` [Compound T2, (Z)-(4R,6S,15S,17S)-[17-[8-chloro-7-methoxy-2-(2-cyanothiazol-4-yl)quinolin-4-yloxy]-13-N-methyl-2,14-dioxo-1,3,13-triazatricyclo-[13.3.0.0]octadec-7-en-4-yl]carbonyl-(1-methylcyclopropyl)sulfonamide], in data set [2], the pIC50 is > 6.00. The pEC50 in data set [3] (72 hr) was > 6.00. Also, in data set [8], the CC50 is > 75 µM.
